Experiments:
[1] = design: method as in PMID 9278892; settings: cited from earlier work
[2] = design: method as in PMID 29678124, PMID 25923809, PMID 27758710; settings: practically insoluble = <0.1 mg/mL; cited from earlier work
[3] = Identification of incomplete hydrolytic products of CUR-2GE (UPLC-MS/MS); type: physicochemical; settings: buffer pH 1.2, 37°C, 24 h; ND = not detected
Method: The incomplete hydrolytic products of CUR-2GE were identified in buffers (pH 1.2, 4.5, 6.8 and 7.4) and human plasma. For hydrolysis in the buffer solutions, the stock solution of CUR-2GE at 200 μg/mL was diluted with a pre-incubated buffer in a vial at 37°C to obtain a final concentration at 10 μg/mL. Samples in buffers pH 1.2 and 4.5 were subsequently incubated at 37°C for 24 h while those in buffers pH 6.8 and 7.4 were incubated at 37°C for 7 min. For hydrolysis in human plasma, the stock solution of CUR-2GE at 100 μg/mL in the diluent was prepared and diluted with pre-incubated human plasma at 37°C for 5 min to obtain a final concentration of 5 μg/mL. The sample was incubated at 37°C for 1 h and an aliquot of 300 μL was added with 300 μL of acetonitrile to stop the reaction. The reaction mixture was then centrifuged at 4°C at 14,000 rpm for 30 min. The supernatant was analyzed using UPLC-MS/MS described below. CUR-2GE, CUR-1GE and curcumin standards were prepared at 10 μg/mL in diluent (2% acetic acid in water: acetonitrile (80: 20, v/v)) and were subjected to UPLC-MS/MS analysis. The retention times and MS/MS spectra of CUR-2GE and its hydrolytic products in buffers and human plasma were compared with those of the standards. The UPLC-MS/MS approach was modified from previous studies. […]

BV-2 microglial cells = assay: Cytotoxicity (MTT assay); type: cell-based, murine; settings: BV-2 cells, 24 h
Method: BV-2 microglial cells were cultured in DMEM supplemented with 10% fetal bovine serum, 2 mM L-glutamine, 1% penicillin/streptomycin (100 units/mL penicillin and 100 μg/mL streptomycin) at 37°C in 5% CO2. BV-2 microglial cells were plated in a 24-well plate at a density of 2 × 10^5 cells/well for 24 h. Various concentrations at 0, 1.25, 2.5, 5, 10, or 20 μM of curcumin or CUR-2GE were determined for a non-toxic concentration. After 24 h, cell viability was assessed by an MTT assay. The media was removed and replaced with an MTT solution in PBS (0.5 mg/mL). After 3-h incubation, the MTT solution was discarded, and formazan crystals formed after the reaction was dissolved in DMSO. The absorbance was then read at 540 nm using a microplate reader (CLARIOstar®, BMG Labtech, Ortenberg, Germany). The percentage of cell viability was expressed relative to the control cells. In addition, the cell viability of BV-2 microglial cells treated with LPS and a combination of LPS and the test compounds was also determined.

curcumin
half-life in human plasma, previously reported [1]: 8 h | USP solubility classification [2]: practically insoluble | detection by UPLC-MS/MS after incubation of CUR-2GE [3]: not detected | non-toxic concentrations (no cytotoxicity) (BV-2 microglial cells): ≤ 10 µM

From PMC9048745, “Physicochemical investigation of a novel curcumin diethyl γ-aminobutyrate, a carbamate ester prodrug of curcumin with enhanced anti-neuroinflammatory activity” (PLoS ONE, 2022)
